“Also recorded” adds a separate entry of the source.
How the values were obtained:
[1] = tested on: cancer cells; conditions: cited from earlier work
[2] = tested on: tumor tissues; conditions: in vivo; cited from earlier work
[3] = tested on: Human cervical cancer HeLa cells (cell strain: 15S3D); experiment: Measurement of organ distribution in cancer-bearing mice; conditions: 1 hour after administration; for ratio of accumulation to the pancreas to accumulation to the tumor indicated by SUV (organ)/SUV (blood): D-form compared with L-form; for accumulation in the tumor, SUV (organ)/SUV (blood) / SUV (organ: tumor)/SUV (blood), D-form compared with L-form / accumulation in the normal tissues, SUV (organ)/SUV (blood): HeLa-transplanted nude mice, tail vein; for accumulation in the tumor, SUV (organ)/SUV (blood): 10 MBq (11C) or 1 MBq (18F), gamma counter; for specificity of accumulation to tumor: from SUV (organ)/SUV (blood) of the organs
Method: Human cervical cancer HeLa cells (cell strain: 15S3D) were subcutaneously transplanted at 5×10^6 cells/mouse to the thighs of 7-week-old nude mice (BALB/cA Jcl-nu, Clea Japan, Inc). […] After 1 hour of the administration, the mice were decapitated to collect each organ (blood, heart, lung, liver, kidney, spleen, muscle, bone, small intestine, gastrointestinal tract, pancreas, brain, and tumor). The radioactivity of each organ was measured with an automatic gamma counter, and the weight of each organ was measured. SUV (standardized uptake value) that served as an index of the accumulating amounts of the administered compounds was determined. Furthermore, to correct the accumulating amounts, SUV (organ)/SUV (blood) was determined by dividing the SUV of each organ by the SUV of blood.

[4] = tested on: HeLa; experiment: Planar measurement in cancer-bearing mice; conditions: 2.5 MBq tail vein, 60 minutes measurement; for accumulation in the tumor site (planar imaging): PPIS-4800; for accumulation in the normal tissues (planar imaging): compared with tumor site
Method: Measurement was performed (1 minute×60 frames) for 60 minutes immediately after the compound administration by use of a planar imaging system (PPIS-4800 manufactured by Hamamatsu Photonics K. K.) and indicated by images each comprising 10 frames integrated.

[5] = tested on: HeLa-K (cell strain: 15S3D) and HeLa-B (JCRB9004); experiment: Relationship between tumor proliferation rate and degree of accumulation of labeled compound for positron imaging; assay type: in vivo, nude mice (BALB/cA Jcl-nu)
Text: HeLa-K (cell strain: 15S3D) and HeLa-B (Health Science Research Resources Bank: JCRB9004) were subcutaneously transplanted at 5×10^6 cells/mouse and 2×10^7 cells/mouse, respectively, to the thighs of female BALB/cA Jcl-nu nude mice (HeLa-K: 7-week-old mice, HeLa-B: 5-week-old mice). The HeLa-K- and HeLa-B-transplanted mice, when becoming 9 week old after 2 weeks and 4 weeks of the transplantation, respectively, were used in the experiment. To examine the relationship between the accumulation of each labeled compound in the cancer-bearing mice and the proliferation rate of the tumor tissue, tumor size was daily measured. Doubling time (DT) was calculated according to the calculation formula: DT=t×log2 (V1/V0) proposed by Schwartz, wherein t denotes the number of days required for the tumor volume to reach V1 (mm^3) from V0 (mm^3), and the volume (mm^3) was calculated according to ½×length (mm)×width^2 (mm^2) from the major axis of the tumor. FIG. 7 is a graph showing the relationship between the number of days elapsed after HeLa transplantation and tumor volumes. […] The doubling times of HeLa-K and HeLa-B calculated from FIG. 7 were 4.4 days and 11.0 days, respectively.
The HeLa-K- and HeLa-B-transplanted nude mice were administered through the tail veins with [^18F]FDG, [^11C]choline, [^18F]FLT, L- and D-[^11C]Met, and L- and D-[^11C]MT at 1 MBq ([^18F]FDG and [^18F]FLT) or 10 MBq ([^11C]choline, L- and D-[^11C]Met, and L- and D-[^11C]MT). […] The radioactivities of the blood and tumor were measured with an automatic gamma counter, their weights were measured, and SUV was determined.
HeLa-K- and HeLa-B-transplanted nude mice were administered through the tail veins with L- and D-[^11C]ET, L- and D-[^18F]FMT, L-and D-[^18F]FET, and L- and D-[^18F]FPT at 10 MBq (L- and D-[^11C]ET) or 1 MBq (the others). […] The radioactivities of the blood and tumor were measured with an automatic gamma counter, their weights were measured, and SUV was determined.

[6] = HeLa-K versus HeLa-B tumors, SUV (organ)/SUV (blood), 1 hour after administration

| Compound | ratio of accumulation to the pancreas to accumulation to the tumor indicated by SUV (organ)/SUV (blood) [3] | accumulation in the tumor, SUV (organ)/SUV (blood) [3] | accumulation in the normal tissues, SUV (organ)/SUV (blood) [3] | specificity of accumulation to tumor [3] | accumulation in the tumor site (planar imaging) [4] | also measured |
| --- | --- | --- | --- | --- | --- | --- |
| N[C@H](Cc1ccc(OCC[18F])cc1)C(=O)O [D-[^18F]FET, O—[^18F]fluoroethyl-D-tyrosine] | lower in the D-form than in the L-form | observed in the tumor | low in the normal tissues except for the pancreas | specific to the tumor; also recorded: particularly high specificity to the tumor | – | uptake to cancer cells [1]: low uptake to cancer cells; accumulation in tumor tissues [2]: does not accumulate in tumor tissues; SUV (organ: tumor)/SUV (blood), D-form compared with L-form [3]: higher value of SUV (organ: tumor)/SUV (blood) than the L-form |
| N[C@@H](Cc1ccc(OC[18F])cc1)C(=O)O [L-[^18F]FMT, O—[^18F]fluoromethyl-L-tyrosine] | – | – | – | – | observed in the tumor site | – |
| N[C@H](Cc1ccc(OC[18F])cc1)C(=O)O [D-[^18F]FMT, O—[^18F]fluoromethyl-D-tyrosine] | – | – | – | particularly high specificity to the tumor | observed in the tumor site | tumor-specific accumulation, D-form compared with L-form (planar imaging) [4]: accumulate in a manner specific to the tumor as compared with the L-form; difference in the degree of accumulation depending on the difference in proliferation rate [5, 6]: remarkably large as compared with L-[^18F]FMT; SUV (organ: tumor)/SUV (blood), D-form compared with L-form [3]: higher value of SUV (organ: tumor)/SUV (blood) than the L-form |
| N[C@H](Cc1ccc(OCCC[18F])cc1)C(=O)O [D-[^18F]FPT, O—[^18F]fluoropropyl-D-tyrosine] | lower in the D-form than in the L-form | observed in the tumor | low in the normal tissues except for the pancreas and bone | specific to the tumor | – | – |
| [11CH3]Oc1ccc(C[C@H](N)C(=O)O)cc1 [L-[^11C]MT, O—[^11C]methyl-L-tyrosine, reference compound] | – | observed in the tumor | low in the normal tissues except for the pancreas | specific to the tumor | observed in the tumor site | – |
| [^18F]-2-fluoro-2-deoxy-D-glucose [[^18F]FDG, reference compound] | – | – | – | – | – | difference in the degree of accumulation depending on the difference in proliferation rate ([5]; mouse, in vivo): not detected |
| [11CH3]SCC[C@H](N)C(=O)O [L-[^11C]Met, L-[^11C]methionine, reference compound] | – | observed in the tumor | also high in the normal tissues | low specificity to tumor | observed in the tumor site | accumulation in the normal tissues (planar imaging) [4]: significantly stronger in the normal tissues; difference in the degree of accumulation depending on the difference in proliferation rate ([5]; mouse, in vivo): not detected |
| [11CH3]Oc1ccc(C[C@@H](N)C(=O)O)cc1 [D-[^11C]MT, O—[^11C]methyl-D-tyrosine] | lower in the D-form than in the L-form | observed in the tumor | low in the normal tissues except for the pancreas | specific to the tumor | observed in the tumor site | tumor-specific accumulation, D-form compared with L-form (planar imaging) [4]: accumulate in a manner specific to the tumor as compared with the L-form; accumulation in tumor, SUV (organ)/SUV (blood), HeLa-K versus HeLa-B ([5]; HeLa-K doubling time 4.4 days, HeLa-B 11.0 days, tail vein, 1 hour after administration): accumulated more in HeLa-K exhibiting faster proliferation; difference in the degree of accumulation depending on the difference in proliferation rate [5, 6]: remarkably large; SUV (organ: tumor)/SUV (blood), D-form compared with L-form [3]: higher value of SUV (organ: tumor)/SUV (blood) than the L-form |
| [11CH3]SCC[C@@H](N)C(=O)O [D-[^11C]Met, reference compound] | – | observed in the tumor | also high in the normal tissues | low specificity to tumor | observed in the tumor site | accumulation in the normal tissues (planar imaging) [4]: significantly stronger in the normal tissues |
| C[11CH2]Oc1ccc(C[C@H](N)C(=O)O)cc1 [L-[^11C]ET, O—[^11C]Ethyl-L-tyrosine, reference compound] | – | observed in the tumor | low in the normal tissues except for the pancreas | specific to the tumor | – | – |
| N[C@@H](Cc1ccc(OCCC[18F])cc1)C(=O)O [L-[^18F]FPT, O—[^18F]Fluoropropyl-L-tyrosine, reference compound] | – | observed in the tumor | low in the normal tissues except for the pancreas and bone | specific to the tumor | – | – |
| N[C@@H](Cc1ccc(OCC[18F])cc1)C(=O)O [L-[^18F]FET, O—[^18F]Fluoroethyl-L-tyrosine, reference compound] | – | observed in the tumor | low in the normal tissues except for the pancreas | specific to the tumor | – | – |
| C[11CH2]Oc1ccc(C[C@@H](N)C(=O)O)cc1 [D-[^11C]ET, O—[^11C]ethyl-D-tyrosine] | lower in the D-form than in the L-form | observed in the tumor | low in the normal tissues except for the pancreas | specific to the tumor | – | – |
